In patent EP4458352A1, “EICOSAPENTAENOIC ACID ESTER DERIVATIVES FOR THE TREATMENT OF OBESITY” (Technische Universität Dresden, priority 2023, dated 2024):

Experiments:
[1] = test system: primary adrenocortical cells; experiment: Seahorse OCR measurement in primary adrenocortical cells treated with SC-26196; format: cell-based, WT C57BL/6J mice; conditions: SC-26196 10 µM, 18 h vs DMSO; n=4
Method: Primary adrenocortical cells were plated in 0.2 % gelatin-precoated XF96 cell culture microplate (Agilent) (8*10^4 cells/well) and treated for 18 h with DMSO or SC-26196 (10 µM). OCR was measured with a Seahorse XF96 Analyzer (Agilent Technologies). The experimental medium used was XF Base Medium supplemented with glucose (10 mM), pyruvate (1 mM) and glutamine (2 mM).

[2] = test system: adrenal glands of mice fed a HFD; experiment: FFA measurement (HPLC-MS) in adrenal glands of HFD mice with or without SC-26196; format: in vivo, WT C57BL/6J mice; conditions: HFD with vs without SC-26196; n=8-10 mice per group
Method: Six weeks-old male WT C57BL/6J mice were fed for 20 weeks a LFD (D12450B, Research Diets, NJ, USA) or a HFD (D12492, Research Diets, NJ, USA). In some experiments, WT C57BL/6J mice were fed for 8 weeks a HFD and for another 8 weeks a HFD supplemented with SC-26196 (Biorbyt Ltd). SC-26196 was mixed in the HFD at a concentration of 625 mg/kg of diet corresponding to approx. 100 mg/kg of animal weight. In other experiments WT mice were fed for 10 weeks a HFD and for another 10 weeks a HFD supplemented with icosapent ethyl (Vascepa). The content of Vascepa capsules was mixed by Research Diets with the diet at a concentration of 1.125 g/kg icosapent ethyl (corresponding to approx. 180 mg/kg of animal weight). Mice were weighed every week. Glucose and insulin tolerance tests were performed as previously described (20, 21). Three to five mg of hair (2-3 mm close to the skin on the back of the mice) were cut while gently holding the mice without anaesthesia.
Frozen adrenal glands were homogenized in 200 µL PBS-buffer. Lipids were extracted from adrenal lysates or supernatants in chloroform/methanol (Folch's protocol). The extract was evaporated to dryness under stream of nitrogen at 40 °C. The residue was dissolved in 100 µL ethanol. For FFA 50 µL were used. […] The quantification was performed with individual calibration curves using deuterated standards (Cayman Chemical, Ann Arbor, MI).

NCI-H295R cells = experiment: Steroid production in forskolin-treated NCI-H295R cells treated with SC-26196; format: cell-based, Human; conditions: FADS2 inhibition (SC-26196)
Method: NCI-H295R cells (obtained from ATCC Cat# CRL-2128) were maintained in DMEM/F12 medium supplemented with 2.5 % Nu-Serum type I (Corning), 1 % Insulin Transferrin Selenium (ITS; Gibco), 50 U/mL penicillin and 50 µg/mL streptomycin. They were treated for 18 h with 10 µM SC-26196 or DMSO. In some experiments, NCI-H295R cells were treated or not for 48 h 66 µM EPA and in the last 24 h they were stimulated or not with forskolin (10 µM; Sigma-Aldrich).
(§1) Steroid hormones in plasma and cell culture supernatants were analyzed by LC-MS/MS as previously described (71). Fifty to hundred µL plasma or cell culture supernatants were extracted by solid phase extraction using positive pressure, followed by a dry-down under gentle stream of nitrogen. Residues were reconstituted in 100 µL of the initial LC mobile phase and 10 µL were injected for detection by the triple quadrupole mass spectrometer in multiple reaction-monitoring scan mode using positive electrospray ionization. Quantification of steroid concentrations was done by comparisons of ratios of analyte peak areas to respective peak areas of stable isotope labeled internal standards obtained in samples to those of calibrators.

[3] = test system: primary adrenocortical cultures; experiment: Medulla explant-conditioned medium on primary adrenocortical cell cultures, steroids by LC-MS/MS; format: cell-based, WT C57BL/6J mice
Method: Medullas were isolated from WT C57BL/6J mice and transferred into DMEM/F12 medium. Six hours later the medulla explant supernatants were collected and applied onto adrenocortical cell cultures. These were previously treated for 6 h with SC-26196 (10 µM) or DMSO. SC-26196 or DMSO were re-added and adrenocortical cells were incubated for another 18 h until supernatants were collected for steroid measurement. In other experiments, medulla explants were treated for 6 h with SC-26196 (10 µM) or DMSO, washed thoroughly and left another 18 h in culture. Their supernatant was then applied on adrenocortical cell cultures and 8 h later supernatants of the latter were collected and analyzed by LC-MS/MS.
as §1, with “Residues were reconstituted in 100 µL of the initial LC mobile phase and 10 µL were injected for detection by the triple quadrupole mass spectrometer in multiple reaction-monitoring scan mode using positive electrospray ionization.” left out

**Q.** Which “oxygen consumption rate (OCR)” value [1] does the source give for `N#CC(CCCN1CCN(/N=C/c2cccnc2)CC1)(c1ccccc1)c1ccccc1` [SC-26196] here?
**A.** Its value is “decreased”.

**Q.** And the “free PUFA, including ARA, levels in the adrenal glands” value [2]?
**A.** Its value is “reduced”.

**Q.** And the 11-deoxycortisol production (NCI-H295R cells)?
**A.** The 11-deoxycortisol production was “reduced”.

**Q.** And the progesterone production (NCI-H295R cells)?
**A.** The progesterone production was “reduced”.

**Q.** What about the “steroid synthesis in cells receiving medulla-conditioned medium” value ([3]; adrenocortical cells treated 6 h with SC-26196 10 µM, then conditioned medium for another 18 h, n=4-6) of the same compound?
**A.** Its value is “diminished steroid synthesis”.

**Q.** What about the “increase of progesterone, 11-dehydrocorticosterone and corticosterone production by medulla-conditioned supernatants” value ([3]; medulla explants treated 6 h with SC-26196 10 µM, washed, 18 h culture, supernatant on adrenocortical cells 8 h, n=8) of the same compound?
**A.** Its value is “attenuated”.
